Laboratory results as given in patent publication US20240287052A1, “NOVEL OXAZOLE DERIVATIVE AND PHARMACEUTICAL COMPOSITION FOR PREVENTING OR TREATING ALLERGIC DISEASES COMPRISING THE SAME” (AZCURIS CO., LTD., priority 2021, published 2024).
Like-named read-outs stand apart in the source and are kept apart here.

Key:
[1] = molecular target: T1, IL33 and ST2 binding (Homo sapiens, UniProt O95760);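 also: plate ELISA with coated Flag-tagged human IL-33 and His-tagged human ST2, bound ST2 detected by anti-His HRP and TMB absorbance at 450 nm, 2 h compound incubation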
T1 sequence (O95760 112-270 limits assumed): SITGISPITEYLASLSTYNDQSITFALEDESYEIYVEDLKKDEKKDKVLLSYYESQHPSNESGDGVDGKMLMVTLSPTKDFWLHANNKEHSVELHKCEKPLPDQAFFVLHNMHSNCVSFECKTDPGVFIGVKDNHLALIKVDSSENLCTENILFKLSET

[2] = test system: IL-6 secretion in the human mast cell line HMC 1.1; test: IL-6 production inhibition assay (IL-33 stimulated HMC 1.1 cells, IL-6 ELISA); format: cell-based; details: 24 hours; for inhibition at 1 µM: 1 μM compound, read-out: Inhibition of hIL-6 production (%) 1 μM; for inhibition at 10 µM: 10 μM compound, read-out: Inhibition of hIL-6 production (%) 10 μM
Description: Human mast cell line HMC 1.1 cells were cultured in medium (Iscove's Modified Dulbecco's Medium, IMDM, HyClone) supplemented with […] fetal bovine serum (FBS, HyClone) and 1% antibiotics and maintained at 37° C. with 5% CO2.
HMC 1.1 cells, which are non-adherent cells, were cultured in 0.5 mL of culture medium containing 200 nM of IL-33 wild type human recombinant protein after centrifugation of cells in culture flasks filled to […] capacity and incubated for 24 hours with […], 10 μM, 25 μM, 30 μM or 50 μM of Example compound.
Medium was harvested by centrifugation (2,000×g, 5 min) and stored at −80° C. until ELISA assay.
Experiments were performed according to the protocol using the Human IL-6 ELISA kit (abCam).
The average of the three values obtained in triplicate was calculated and the amount of IL-6 secretion was measured using a standard curve. The measured IL-6 secretion was converted to 100% based on the vehicle treatment sample value to obtain the vehicle %.

In the case of `CS(=O)(=O)NCCNC(=O)c1nc(-c2ccc(C(F)(F)F)cc2)oc1-c1ccccc1[N+](=O)[O-]` [Compound 288, N-(2-(Methylsulfonamido)ethyl)-5-(2-nitrophenyl)-2-(4-(trifluoromethyl)phenyl)oxazole-4-carboxamide], the inhibition ([1]; 30 µM) is reported as 43% and the inhibition ([1]; 100 µM) is reported as 50%.

Work on `COCCNC(=O)c1nc(-c2ccc(C(F)(F)F)cc2)oc1-c1cccc(SC)c1` [Compound 293, N-(2-Methoxyethyl)-5-(3-(methylthio)phenyl)-2-(4-(trifluoromethyl)phenyl)oxazole-4-carboxamide] yielded an inhibition ([1]; 30 µM) of 40% and an inhibition ([1]; 100 µM) of 107%.

With `CCCNC(=O)c1nc(-c2ccc(C(F)(F)F)cc2)oc1-c1ccccc1` [Compound 295, 5-Phenyl-N-propyl-2-(4-(trifluoromethyl)phenyl)oxazole-4-carboxamide] the inhibition at 1 µM [2] was 53% and the inhibition at 10 µM [2] was 57%.

`CCNC(=O)c1nc(-c2ccc(C(F)(F)F)cc2)oc1-c1ccccc1OC` [Compound 296, N-Ethyl-5-(2-methoxyphenyl)-2-(4-(trifluoromethyl)phenyl)oxazole-4-carboxamide] gave an inhibition at 1 µM [2] of 0% and an inhibition at 10 µM [2] of 32%.

`CCCNC(=O)c1nc(-c2ccc(C(F)(F)F)cc2)oc1-c1ccccc1OC` [Compound 297, 5-(2-Methoxyphenyl)-N-propyl-2-(4-(trifluoromethyl)phenyl)oxazole-4-carboxamide] was tested, and the inhibition at 1 µM [2] was 3% and the inhibition at 10 µM [2] was 34%.

For `CCCNC(=O)c1nc(-c2ccc(C(F)(F)F)cc2)oc1-c1cccc(OC)c1` [Compound 299, 5-(3-Methoxyphenyl)-N-propyl-2-(4-(Trifluoromethyl)phenyl)oxazole-4-carboxamide], the inhibition at 1 µM [2] was 40% and the inhibition at 10 µM [2] was 57%.

`CCNC(=O)c1nc(-c2ccc(C(F)(F)F)cc2)oc1-c1ccc(OC)cc1` [Compound 300, N-Ethyl-5-(4-methoxyphenyl)-2-(4-(trifluoromethyl)phenyl)oxazole-4-carboxamide] showed an inhibition at 1 µM [2] of 37% and an inhibition at 10 µM [2] of 47%.

Work on `CCCNC(=O)c1nc(-c2ccc(C(F)(F)F)cc2)oc1-c1ccc(OC)cc1` [Compound 301, 5-(4-Methoxyphenyl)-N-propyl-2-(4-(Trifluoromethyl)phenyl)oxazole-4-carboxamide] yielded an inhibition at 1 µM [2] of 21% and an inhibition at 10 µM [2] of 31%.

`CCNC(=O)c1nc(-c2ccc(C(F)(F)F)cc2)oc1-c1ccc(OC)c(OC)c1` [Compound 302, 5-(3,4-dimethoxyphenyl)-N-ethyl-2-(4-(Trifluoromethyl)phenyl)oxazole-4-carboxamide] showed an inhibition at 1 µM [2] of -34% and an inhibition at 10 µM [2] of -29%.

`CCNC(=O)c1nc(-c2ccc(C(F)(F)F)cc2)oc1-c1cc(OC)cc(OC)c1` [Compound 303, 5-(3,5-Dimethoxyphenyl)-N-ethyl-2-(4-(trifluoromethyl)phenyl)oxazole-4-carboxamide] was tested, and the inhibition at 1 µM [2] was 26% and the inhibition at 10 µM [2] was 26%.

With `CCNC(=O)c1nc(-c2ccc(C(F)(F)F)cc2)oc1-c1cc(OC)c(OC)c(OC)c1` [Compound 304, N-Ethyl-2-(4-(trifluoromethyl)phenyl)-5-(3,4,5-trimethoxyphenyl)oxazole-4-carboxamide] the inhibition at 1 µM [2] was -47% and the inhibition at 10 µM [2] was -74%.

`CCNC(=O)c1nc(-c2ccc(C(F)(F)F)cc2)oc1-c1ccncc1` [Compound 309, N-Ethyl-5-(pyridin-4-yl)-2-(4-(trifluoromethyl)phenyl)oxazole-4-carboxamide] gave an inhibition at 1 µM [2] of 56% and an inhibition at 10 µM [2] of 51%.

`CCCNC(=O)c1nc(-c2ccc(C(F)(F)F)cc2)oc1-c1ccncc1` [Compound 310, N-Propyl-5-(pyridin-4-yl)-2-(4-(trifluoromethyl)phenyl)oxazole-4-carboxamide] was tested, and the inhibition at 1 µM [2] was 49% and the inhibition at 10 µM [2] was 58%.

`CCNC(=O)c1nc(-c2ccc(C(F)(F)F)cc2)oc1-c1cccc(O)c1` [Compound 318, N-Ethyl-5-(3-hydroxyphenyl)-2-(4-(trifluoromethyl)phenyl)oxazole-4-carboxamide] gave an inhibition at 1 µM [2] of 70% and an inhibition at 10 µM [2] of 79%.
